The record followed here is ChEMBL document CHEMBL3044617, “N-[2(3-Carboxyl-9-benzyl-carboline-1-yl)ethyl-1-yl]-amino acids: correlation of spectral property with in vivo anti-tumor activity” (2012).

The source made the active and inactive calls. The rule behind the calls is not given here.

Assay [1] has as its system DNA. The assay is described as follows: Binding affinity to Bos taurus (calf) thymus DNA assessed as change in DNA viscosity. It is filed as nucleic-acid assay.
Assay [2] relates to DNA. The assay is described as follows: Binding affinity to Bos taurus (calf) thymus DNA assessed as hypsochromic shift at 20 uM by UV spectra analysis. It counts as nucleic-acid assay.
Assay [3] relates to DNA. The assay is described as follows: Binding affinity to Bos taurus (calf) thymus DNA assessed as positive band intensity at 100 uM after 24 hr by CD spectra analysis (reference value: 21429 +/- 276 deg cm2/dmol'-1). It is filed as nucleic-acid assay.
For assay [4], the system named is DNA. The experiment in a line: Binding affinity to Bos taurus (calf) thymus DNA assessed as change melting temperature at 20 uM. It is filed as nucleic-acid assay.
The test system of assay [5] is DNA. The experiment in a line: Binding affinity to Bos taurus (calf) thymus DNA assessed as hypochromic effect at 20 uM by UV spectra analysis. It counts as nucleic-acid assay.
In assay [6] the test system is DNA. The assay is described as follows: Binding affinity to Bos taurus (calf) thymus DNA assessed as melting temperature at 20 uM (reference value: 60.3 degC). It counts as nucleic-acid assay.
Assay [7] concerns DNA. The experiment in a line: Binding affinity to Bos taurus (calf) thymus DNA assessed as decrease in fluorescence intensity at 0.5 uM by fluorescence quenching assay. It counts as nucleic-acid assay. Details: scale not given: the % may be the effect or the level left.
Assay [8] relates to DNA. The assay is described as follows: Binding affinity to Bos taurus (calf) thymus DNA assessed as negative band intensity at 100 uM after 24 hr by CD spectra analysis (reference value: -15209 +/- 245 deg cm2/dmol'-1). It counts as nucleic-acid assay.
In assay [9] the test system is DNA. The experiment in a line: Binding affinity to Bos taurus (calf) thymus DNA assessed as bathochromic shift at 0.5 uM by fluorescence quenching assay. It counts as nucleic-acid assay.
A further assay concerns CCRF S-180. The experiment in a line: Antitumor activity against Mus musculus (mouse) S180 cells xenografted in ICR Mus musculus (mouse) assessed as tumor growth inhibition at 89 umol/kg, ip qd for 7 days measured after 24 hr of last dose relative to control. It counts as functional. The note with it: CCRF S-180, ip, read-out: TGI.

What is called ΔTm is the change in melting temperature against a reference sample. On to `O=C(O)C[C@H](NCCc1nc(C(=O)O)cc2c3ccccc3n(Cc3ccccc3)c12)C(=O)O`, for which the result in the assay with DNA [1] was Active. Moreover, the Activity amounted to 3.4 nm in the assay with DNA [2], 32% in the assay on DNA [5], 63.9% with DNA [7] and 8.2 nm in the assay on DNA [9]. Further, the figures for the molecular ellipticity with DNA [3] and in the assay on DNA [8] were 2750 deg.cm2/dmol and -36300 deg.cm2/dmol, respectively. Also, in the assay with DNA [4], the ΔTm was found to be 12.9 °C. In addition, the Tm with DNA [6] came to 73.2 °C. Moreover, the inhibition in vivo at 89 µmol/kg in the assay with CCRF S-180 came to 34.7%.
For the molecule `O=C(O)c1cc2c3ccccc3n(Cc3ccccc3)c2c(CCN[C@@H](CO)C(=O)O)n1`, in the assay on DNA [1], the outcome was Active. The Activity is 4.8 nm in the assay with DNA [2], 29.6% with DNA [5], 42.4% with DNA [7] and 4.6 nm in the assay with DNA [9]. Moreover, the molecular ellipticity in the assay with DNA [3] was 10100 deg.cm2/dmol; in the assay on DNA [8], -23700 deg.cm2/dmol. For the same molecule, in the assay on DNA [4], the ΔTm was determined as 10.8 °C. Also, the Tm with DNA [6] amounted to 71.1 °C. For the same molecule, the inhibition in vivo at 89 µmol/kg in the assay on CCRF S-180 is 35.3%.
Consider `Nc1ccn([C@@H]2O[C@H](CO)[C@@H](O)[C@@H]2O)c(=O)n1` [CYTARABINE], for which the inhibition in vivo at 89 µmol/kg with CCRF S-180 turned out to be 54.8%.
Regarding `O=C(O)c1cc2c3ccccc3n(Cc3ccccc3)c2c(CCN[C@@H](Cc2ccc(O)cc2)C(=O)O)n1`, the result with DNA [1] was Active. Also, the Activity with DNA [2] worked out at 4.8 nm; with DNA [5] it was 30.5%; in the assay with DNA [7], 58.7%; in the assay on DNA [9] it was 4.4 nm. In addition, the molecular ellipticity was 28900 deg.cm2/dmol in the assay with DNA [3] and -1080 deg.cm2/dmol with DNA [8]. Further, in the assay with DNA [4], the ΔTm came out at 11.9 °C. For the same molecule, the Tm in the assay on DNA [6] was 72.2 °C. Further, in the assay with CCRF S-180, the inhibition in vivo at 89 µmol/kg was found to be 48.6%.
For the molecule `C[C@@H](O)[C@H](NCCc1nc(C(=O)O)cc2c3ccccc3n(Cc3ccccc3)c12)C(=O)O`, in the assay on DNA [1], the outcome was Active. The Activity in the assay with DNA [2] was found to be 0 nm; with DNA [5], 0%; in the assay on DNA [7], 32.6%; with DNA [9], 2.2 nm. Moreover, the molecular ellipticity in the assay with DNA [3] is 17400 deg.cm2/dmol; with DNA [8], -5800 deg.cm2/dmol. Besides, the ΔTm with DNA [4] is 4.9 °C. For the same molecule, the Tm in the assay with DNA [6] is 65.4 °C. Besides, the inhibition in vivo at 89 µmol/kg in the assay on CCRF S-180 was -29.1%.
